Experimental findings from US7598397B2, “Sulfonamide peri-substituted bicyclics for occlusive artery disease” (deCODE genetics ehf, priority 2004, dated 2009) are described below.

The experiment concerns the target T1, prostanoid EP3 receptors (Homo sapiens, UniProt P43115).
T1 sequence (P43115 1-390): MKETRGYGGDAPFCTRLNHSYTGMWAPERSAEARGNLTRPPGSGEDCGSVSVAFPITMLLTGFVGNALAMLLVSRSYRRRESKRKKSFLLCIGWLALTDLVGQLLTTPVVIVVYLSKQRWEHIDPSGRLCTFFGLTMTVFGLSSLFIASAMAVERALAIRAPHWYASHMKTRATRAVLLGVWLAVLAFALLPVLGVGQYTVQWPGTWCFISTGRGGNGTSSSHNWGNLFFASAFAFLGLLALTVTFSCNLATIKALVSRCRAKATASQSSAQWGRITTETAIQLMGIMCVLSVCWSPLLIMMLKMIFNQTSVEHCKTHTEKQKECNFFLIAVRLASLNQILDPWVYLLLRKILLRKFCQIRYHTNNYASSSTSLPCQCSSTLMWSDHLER
The experiment is described as follows: binding on prostanoid EP3 receptors (method of Abramovitz et al.). Particulars: read-out: Activity (EP3 receptor binding, IC50 class). Here is the method:
The compounds of the invention were assayed for their binding on prostanoid EP3 receptors according to the method of Abramovitz et al. [Bioch. Biophys.
As a reminder, the IC50 is the midpoint of a concentration-inhibition curve. On to `Cn1cc(/C=C/C(=O)NS(=O)(=O)c2cc(Cl)c(Cl)s2)c2c(Oc3ccc(Cl)c(F)c3)cccc21` [Compound P333], for which the IC50 was less than 1 µM.

In the case of `CC1(O)C(=O)N(Cc2ccc(Cl)cc2Cl)c2c(C=CC(=O)NS(=O)(=O)c3cc(Cl)c(Cl)s3)cccc21` (stereo not shown) [Compound P133], the 50% inhibitory concentration (IC50) was less than 1 µM.

Take `O=C(COc1cccc2c1C(F)(Cc1ccc3ccccc3c1)C(=O)N2)NS(=O)(=O)c1cc(Cl)c(Cl)s1` (stereo not shown) [Compound P157]: the IC50 is less than 1 µM.

For `Cn1cc(C=CC(=O)NS(=O)(=O)c2cc(F)c(F)cc2F)c2c(Oc3ccc(F)c(F)c3)cccc21` [Compound P318], the IC50 was less than 1 µM.

On to `CC12CCCC(CCC(=O)NS(=O)(=O)c3cc(F)c(F)cc3F)C1N(Cc1ccc(F)c(F)c1)C(=O)C2` (stereo not shown) [Compound P410], for which the IC50 is less than 1 µM.

With `Cn1cc(/C=C/C(=O)NS(=O)(=O)c2cc(Cl)c(Cl)s2)c2c(Oc3ccc(Cl)cc3F)cccc21` [Compound P339], the IC50 was less than 1 µM.

Regarding `Cc1cn(Cc2c(Cl)cccc2Cl)c2c(/C=C/C(=O)NS(=O)(=O)c3cc(Cl)c(Cl)s3)cccc12` [Compound P124], the IC50 is less than 1 µM.

With `O=C(C=Cc1cccc2c1C(=Nc1ccc3ccccc3c1)C(=O)N2)NS(=O)(=O)c1cc(Cl)c(Cl)s1` [Compound P244], the IC50 was less than 1 µM.

For `Cn1cc(C=CC(=O)NS(=O)(=O)c2cc(Cl)cc(Cl)c2)c2c(Oc3ccc4ccccc4c3)cccc21` [Compound P357], the IC50 is less than 1 µM.

Take `O=C(COc1cccc2[nH]cc(Sc3ccc4ccccc4c3)c12)NS(=O)(=O)c1ccccc1Cl` [Compound P183]: the IC50 was less than 1 µM.

Consider `Cn1cc(C=CC(=O)NS(=O)(=O)c2cc(F)c(F)cc2F)c2c(Oc3ccc(Cl)c(F)c3)cccc21` [Compound P331], for which the IC50 was less than 1 µM.

On to `Cc1cn(Cc2ccccc2Cl)c2c(/C=C/C(=O)NS(=O)(=O)c3cccs3)cccc12` [Compound P086], for which the IC50 is less than 1 µM.

With `O=C(COc1cccc2[nH]cc(S(=O)(=O)c3ccc4ccccc4c3)c12)NS(=O)(=O)c1ccc(F)cc1` [Compound P236], the IC50 is less than 1 µM.

On to `Cc1cn(Cc2ccc(Cl)cc2Cl)c2c(C=CC(=O)NS(=O)(=O)c3ccccc3)cccc12` [Compound P090], for which the IC50 is less than 1 µM.

As for `Cc1ccc(Sc2c[nH]c3cccc(OCC(=O)NS(=O)(=O)c4cc(Cl)c(Cl)s4)c23)c(C)c1` [Compound P165], the IC50 was less than 1 µM.

As to `COCc1cn(Cc2ccc(Cl)cc2Cl)c2c(C=CC(=O)NS(=O)(=O)c3cccs3)cccc12` [Compound P070], the IC50 was less than 1 µM.

For `Cn1cc(C=CC(=O)NS(=O)(=O)c2cc(Cl)c(Cl)s2)c2c(Oc3ccc(F)c(F)c3)cccc21` [Compound P320], the IC50 is less than 1 µM.

On to `O=C(COc1cccc2[nH]cc(S(=O)(=O)c3ccc(F)cc3Cl)c12)NS(=O)(=O)c1cc(Cl)c(Cl)s1` [Compound P234], for which the IC50 is less than 1 µM.

With `O=C(COc1cccc2[nH]cc(Sc3ncccn3)c12)NS(=O)(=O)c1cc(Cl)c(Cl)s1` [Compound P211], the IC50 was less than 1 µM.

As to `CC12CCCC(C=CC(=O)NS(=O)(=O)c3ccc(F)c(F)c3)=C1N(Cc1ccc(F)c(F)c1)C(=O)C2` (stereo not shown) [Compound P304], the IC50 was less than 1 µM.

On to `O=C(C=Cc1cccc2c1C(Nc1ccc3ccccc3c1)C(=O)N2)NS(=O)(=O)c1cc(Cl)c(Cl)s1` (stereo not shown) [Compound P241], for which the IC50 is less than 1 µM.

On to `O=C(C=Cc1cccc2c1N(Cc1ccc(Cl)cc1Cl)C(=O)C2=O)NS(=O)(=O)c1cc(Cl)c(Cl)s1` [Compound P113], for which the IC50 was less than 1 µM.

`O=C(C=Cc1cccc2c1N(Cc1ccc3ccccc3c1)C(=O)C2(F)F)NS(=O)(=O)c1cc(Cl)c(Cl)s1` [Compound P180]: the IC50 was less than 1 µM.

Consider `CC1C(=O)N(Cc2ccc(Cl)cc2Cl)c2c(C=CC(=O)NS(=O)(=O)c3cc(Cl)c(Cl)s3)cccc21` (stereo not shown) [Compound P107], for which the IC50 is less than 1 µM.

As for `O=C(COc1cccc2[nH]cc(Sc3ccc4ccccc4c3)c12)NS(=O)(=O)C(F)(F)F` [Compound P243], the IC50 was less than 1 µM.
